{"source": "patent US5900488A", "about": "“Method for treating mycosis using imidazolylacetonitrile derivatives” (Nihon Nohyaku Co., Ltd., priority 1995, dated 1999)", "key": {"[1]": {"test_system": "dermatophytes", "assay": "Antifungal activity against dermatophytes compared with racemic mixtures (general statement)", "conditions": "especially highly sensitive strains"}, "[2]": {"test_system": "Trichophyton rubrum", "assay": "In vitro activity against Trichophyton rubrum, MIC by twofold macro-broth dilution (Test Example 1)", "assay_type": "cell-based", "procedure": "(§1) Minimum inhibitory concentrations (MICs) were determined by the twofold macro-broth dilution method with Sabouraud's glucose broth which constituted with 1% bactopeptone and 4% glucose. To each tube containing 9.8 ml of the broth, 0.1 ml of each testing compound dissolved in DMSO and 0.1 ml of a conidial suspension (1×10^6 conidia/ml) were added. The fungal growth was observed after incubation for 7 days at 27° C. The MIC was determined as the lowest drug concentration which prevented a visible fungal growth."}, "[3]": {"test_system": "Aspergillus fumigatus", "assay": "In vitro antifungal activity against Aspergillus fumigatus, MIC by twofold agar dilution (Test Example 4)", "assay_type": "cell-based", "conditions": "read-out: MIC", "procedure": "MICs were determined by the twofold agar dilution method with casitone agar which constituted with 0.9% bactocasitone, 1% bacto-yeast extract, 2% glucose, 0.1% KH2 PO4, 0.1% Na2 HPO4, 1% Na3 C6 H5 O7 and 1.6% agar. A loopful of each inoculum (1×10^6 conidia/ml) was streaked onto the agar plate containing a compound, and a fungal growth was observed after incubation for 48 hours at 35° C. The MIC was determined as the lowest drug concentration which prevented a visible fungal growth."}, "[4]": {"test_system": "Candida albicans", "assay": "In vitro antifungal activity against Candida albicans, MIC by twofold micro-broth dilution (Test Example 3)", "assay_type": "cell-based", "conditions": "48 hours at 35° C., pH 7.0, read-out: MIC", "procedure": "MICs were determined by the twofold micro-broth dilution method with RPMI 1640 buffered with morphorino-propanesulfonic acid to a final molarity of 0.165M (pH 7.0). One hundred μl of a yeast cell suspension (1 to 5×10^3 cells/ml) and 100 μl of the compound-containing medium were pipetted into each well flat-bottomed microtiter plates. After incubation for 48 hours at 35° C., the turbidity of each well was measured at 630 nm."}, "[5]": {"test_system": "Trichophyton mentagrophytes", "assay": "In vitro activity against Trichophyton mentagrophytes, MIC by twofold macro-broth dilution (Test Example 1)", "assay_type": "cell-based", "conditions": "Trichophyton mentagrophytes, 7 days at 27° C.", "procedure": "as §1"}}, "note": "Read-outs that look alike come from different tables or passages of the source.", "data": [{"smiles": "N#C/C(=C1/SC[C@@H](c2ccc(Cl)cc2Cl)S1)n1ccnc1", "note": "[Compound (B), R-(-)-(E)-[4-(2,4-dichlorophenyl)-1,3-dithiolan-2-ylidene]-1-imidazolylacetonitrile]", "values": [{"measurement": "antifungal activity relative to the racemic mixtures", "setting": "[1]", "result": "several times"}, {"measurement": "sensitivity (in words)", "setting": "[2]", "result": "highly sensitive"}, {"measurement": "MIC", "setting": "[2]; IFO5467, 168 h, strain IFO 5467, 7 days at 27° C.", "result": 0.0025, "unit": "µg/mL"}, {"measurement": "MIC", "setting": "[2]; IFO5807, 168 h, strain IFO 5807, 7 days at 27° C.", "result": 0.0025, "unit": "µg/mL"}, {"measurement": "MIC", "setting": "[2]; IFO5808, 168 h, strain IFO 5808, 7 days at 27° C.", "result": 0.0025, "unit": "µg/mL"}, {"measurement": "MIC", "setting": "[2]; IFO6203, 168 h, strain IFO 6203, 7 days at 27° C.", "result": 0.0013, "unit": "µg/mL"}, {"measurement": "MIC", "setting": "[2]; IFO6204, 168 h, strain IFO 6204, 7 days at 27° C.", "result": 0.0025, "unit": "µg/mL"}, {"measurement": "MIC", "setting": "[2]; IFO9185, 168 h, strain IFO 9185, 7 days at 27° C.", "result": 0.0013, "unit": "µg/mL"}, {"measurement": "MIC", "setting": "[2]; TIMM1822, 168 h, strain TIMM 1822, 7 days at 27° C.", "result": 0.00063, "unit": "µg/mL"}, {"measurement": "MIC", "setting": "[2]; TIMM1823, 168 h, strain TIMM 1823, 7 days at 27° C.", "result": 0.0013, "unit": "µg/mL"}, {"measurement": "MIC", "setting": "[2]; TIMM1824, 168 h, strain TIMM 1824, 7 days at 27° C.", "result": 0.0013, "unit": "µg/mL"}, {"measurement": "MIC", "setting": "[2]; TIMM1830, 168 h, strain TIMM 1830, 7 days at 27° C.", "result": 0.00063, "unit": "µg/mL"}, {"measurement": "MIC", "setting": "[3]; TIMM0063, strain TIMM 0063, 48 hours at 35° C.", "result": 0.00063, "unit": "µg/mL"}, {"measurement": "MIC", "setting": "[3]; TIMM0078, strain TIMM 0078, 48 hours at 35° C.", "result": 0.00063, "unit": "µg/mL"}, {"measurement": "MIC", "setting": "[3]; TIMM1728, strain TIMM 1728, 48 hours at 35° C.", "result": "≤ 0.00031", "unit": "µg/mL"}, {"measurement": "MIC", "setting": "[3]; TIMM1767, strain TIMM 1767, 48 hours at 35° C.", "result": 0.00063, "unit": "µg/mL"}, {"measurement": "MIC", "setting": "[4]; IFO0197, strain IFO 0197, 80% inhibition", "result": 0.0625, "unit": "µg/mL"}, {"measurement": "MIC", "setting": "[4]; IFO0579, strain IFO 0579, 80% inhibition", "result": 0.0313, "unit": "µg/mL"}, {"measurement": "MIC", "setting": "[4]; IFO1269, strain IFO 1269, 80% inhibition", "result": 0.0625, "unit": "µg/mL"}, {"measurement": "MIC", "setting": "[4]; IFO1270, strain IFO 1270, 80% inhibition", "result": 0.25, "unit": "µg/mL"}, {"measurement": "MIC", "setting": "[4]; IFO1385, strain IFO 1385, 80% inhibition", "result": 0.0625, "unit": "µg/mL"}, {"measurement": "MIC", "setting": "[4]; IFO1386, strain IFO 1386, 80% inhibition", "result": 0.125, "unit": "µg/mL"}, {"measurement": "MIC", "setting": "[4]; TIMM3163, strain TIMM 3163, 80% inhibition", "result": 16, "unit": "µg/mL"}, {"measurement": "MIC", "setting": "[4]; TIMM3164, strain TIMM 3164, 80% inhibition", "result": 0.5, "unit": "µg/mL"}, {"measurement": "MIC", "setting": "[4]; TIMM3165, strain TIMM 3165, 80% inhibition", "result": 2, "unit": "µg/mL"}, {"measurement": "MIC", "setting": "[4]; TIMM3166, strain TIMM 3166, 80% inhibition", "result": 1, "unit": "µg/mL"}, {"measurement": "MIC", "setting": "[5]; IFO5466, 168 h, strain IFO 5466", "result": 0.02, "unit": "µg/mL"}, {"measurement": "MIC", "setting": "[5]; IFO5809, 168 h, strain IFO 5809", "result": 0.005, "unit": "µg/mL"}, {"measurement": "MIC", "setting": "[5]; IFO5810, 168 h, strain IFO 5810", "result": 0.005, "unit": "µg/mL"}, {"measurement": "MIC", "setting": "[5]; IFO5811, 168 h, strain IFO 5811", "result": 0.01, "unit": "µg/mL"}, {"measurement": "MIC", "setting": "[5]; IFO5929, 168 h, strain IFO 5929", "result": 0.01, "unit": "µg/mL"}, {"measurement": "MIC", "setting": "[5]; TIMM1189, 168 h, strain TIMM 1189", "result": 0.01, "unit": "µg/mL"}, {"measurement": "MIC", "setting": "[5]; TIMM1814, 168 h, strain TIMM 1814", "result": 0.02, "unit": "µg/mL"}, {"measurement": "MIC", "setting": "[5]; TIMM1815, 168 h, strain TIMM 1815", "result": 0.02, "unit": "µg/mL"}, {"measurement": "MIC", "setting": "[5]; TIMM1817, 168 h, strain TIMM 1817", "result": 0.01, "unit": "µg/mL"}, {"measurement": "MIC", "setting": "[5]; TIMM2789, 168 h, strain TIMM 2789", "result": 0.0025, "unit": "µg/mL"}]}]}
